Data as given in ChEMBL document CHEMBL1121401, “Potential antitumor agents. 33. Quantitative structure--activity relationships for mutagenic activity and antitumor activity of substituted 4'-(9-acridinylamino)methanesulfonanilide derivatives” (J Med Chem, 1980).
Active and inactive are the calls of the source. The calls are words filed in the database; no cut-off is given here.

Columns and labels:
Mus musculus [1] = organism: Mus musculus
Description: Drug dose in (mg/kg)/day to provide an increase in life span of 40% was determined; nr refers to Particular level of biological response required not reached before drug toxicity supervened

Salmonella typhimurium = conditions: Salmonella enterica subsp. enterica serovar Typhimurium
Mus musculus [2] = organism: Mus musculus; remark: listed apart in the source
Description: Drug dose in (mg/kg)/day to provide an increase in life span of 40% was determined;nr refers to Particular level of biological response required not reached before drug toxicity supervened

Description for physchem: Ionization constant (pKa)

| SMILES | pKa (physchem) | Log 1/D40 (Mus musculus [1]) | Log M50 (Salmonella typhimurium) | Log 1/D40 (Mus musculus [2]) |
| --- | --- | --- | --- | --- |
| CS(=O)(=O)Nc1ccc(Nc2c3ccccc3nc3cc(C#N)ccc23)cc1 | 5.75 | Not reached | inactive |  |
| CS(=O)(=O)Nc1ccc(Nc2c3ccccc3nc3cc(NS(C)(=O)=O)ccc23)cc1 |  |  | inactive |  |
| Cc1cc(Nc2c3ccccc3nc3ccccc23)ccc1NS(C)(=O)=O | 7.08 | Not reached |  |  |
| COc1cc(Nc2c3ccccc3nc3ccccc23)ccc1NS(C)(=O)=O [o-Amsacrine] | 7.03 | Not reached |  |  |
| CCCCCCS(=O)(=O)Nc1ccc(Nc2c3ccccc3nc3ccccc23)cc1 |  | Not reached |  |  |
| COc1cccc2nc3ccccc3c(Nc3ccc(NS(C)(=O)=O)cc3)c12 |  | Not reached |  |  |
| CS(=O)(=O)Nc1ccc(Nc2c3ccccc3nc3ccccc23)cc1[N+](=O)[O-] |  | Not reached |  |  |
| CS(=O)(=O)Nc1ccc(Nc2c3ccccc3nc3ccc([N+](=O)[O-])cc23)cc1 |  | Not reached |  |  |
| CS(=O)(=O)Nc1ccc(Nc2c3ccccc3nc3ccccc23)c([N+](=O)[O-])c1 | 4.86 | Not reached | inactive |  |
| CS(=O)(=O)Nc1ccc(Nc2c3ccccc3nc3ccccc23)c(N)c1 | 7.65 |  |  |  |
| CS(=O)(=O)Nc1ccc(Nc2c3ccccc3nc3ccccc23)c(Cl)c1 | 6.34 | Not reached |  |  |
| Cc1cc(NS(C)(=O)=O)ccc1Nc1c2ccccc2nc2ccccc12 | 7.38 |  |  |  |
| CS(=O)(=O)Nc1ccc(Nc2c3ccccc3nc3cnccc23)cc1 |  | Not reached |  |  |
| CS(=O)(=O)Nc1ccc(Nc2c3ccccc3nc3ccccc23)cc1Cl | 6.44 | Not reached |  |  |

Further lines, with some results ahead:

| pKa (physchem) | SMILES | Log 1/D40 (Mus musculus [1]) | Log M50 (Salmonella typhimurium) | Log 1/D40 (Mus musculus [2]) |
| --- | --- | --- | --- | --- |
| 7.57 | COc1ccc2c(Nc3ccc(NS(C)(=O)=O)cc3)c3ccccc3nc2c1 |  |  |  |
| 6.42 | CS(=O)(=O)Nc1ccc(Nc2c3ccccc3nc3ccc(Cl)cc23)cc1 | Not reached |  |  |
| 5.65 | CS(=O)(=O)Nc1ccc(Nc2c3ccccc3nc3cc(S(C)(=O)=O)ccc23)cc1 | Not reached |  |  |
| 6.43 | Cc1cccc2nc3ccccc3c(Nc3ccc(NS(C)(=O)=O)cc3)c12 |  |  |  |
| 6.57 | CS(=O)(=O)Nc1ccc(Nc2c3ccccc3nc3cc(Cl)ccc23)cc1 |  |  |  |
| 7.49 | Cc1ccc2c(Nc3ccc(NS(C)(=O)=O)cc3)c3ccccc3nc2c1 |  |  |  |
| 7.13 | C[N+](C)=[N+]=Nc1ccc2c(Nc3ccc(NS(C)(=O)=O)cc3)c3ccccc3nc2c1 |  |  |  |
| 7.15 | COc1cccc2c(Nc3ccc(NS(C)(=O)=O)cc3)c3ccccc3nc12 |  |  |  |
| 7 | CS(=O)(=O)Nc1ccc(Nc2c3ccccc3nc3cc(N=[N+]=[N-])ccc23)cc1 |  |  |  |
| 7.23 | Cc1ccc2nc3ccccc3c(Nc3ccc(NS(C)(=O)=O)cc3)c2c1 | Not reached |  |  |
| 7.48 | COC(=O)Nc1ccc2c(Nc3ccc(NS(C)(=O)=O)cc3)c3ccccc3nc2c1 |  |  |  |
| 6.34 | CS(=O)(=O)Nc1ccc(Nc2c3ccccc3nc3ccc(C(N)=O)cc23)cc1 | Not reached |  |  |
| 5.86 | CS(=O)(=O)Nc1ccc(Nc2c3ccccc3nc3cccc(Cl)c23)cc1 |  |  |  |
| 6.56 | CS(=O)(=O)Nc1ccc(Nc2c3ccccc3nc3cc(Br)ccc23)cc1 |  |  |  |
| 9.3 | CNc1ccc2c(Nc3ccc(NS(C)(=O)=O)cc3)c3ccccc3nc2c1 |  |  |  |
| 5.92 | CS(=O)(=O)Nc1ccc(Nc2c3ccccc3nc3c(Cl)cccc23)cc1 |  |  | Not reached |
| 6.87 | COc1ccc2nc3ccccc3c(Nc3ccc(NS(C)(=O)=O)cc3)c2c1 | Not reached |  |  |
